Key:
[1] = Inhibition of Helicobacter pylori IMPDH
[2] = Inhibition of Francisella tularensis IMPDH expressed in Escherichia coli BL21(DE3) deletion in guaB gene using IMP as substrate preincubated for 10 mins followed by substrate addition in presence of NAD by spectrophotometer
[3] = Inhibition of Mycobacterium tuberculosis IMPDH2
[4] = target: Inosine-5'-monophosphate dehydrogenase (Mycobacterium tuberculosis (strain ATCC 25618 / H37Rv)) (UniProt P9WKI7); experiment: Inhibition of Mycobacterium tuberculosis H37Rv IMPDH2 at 1 uM using IMP as substrate incubated for 20 mins in presence of NAD by UV spectrophotometric analysis relative to control
[5] = target: Inosine-5'-monophosphate dehydrogenase 2 (Homo sapiens) (UniProt P12268); experiment: Inhibition of human IMPDH2 relative to control; settings: concentration not given here
[6] = Inhibition of Helicobacter pylori IMPDH using IMP as substrate preincubated for 10 mins followed by addition of substrate and measured after 45 mins in presence of NAD by fluorescence based assay

Chain of Inosine-5'-monophosphate dehydrogenase (Mycobacterium tuberculosis (strain ATCC 25618 / H37Rv)) (P9WKI7 whole entry): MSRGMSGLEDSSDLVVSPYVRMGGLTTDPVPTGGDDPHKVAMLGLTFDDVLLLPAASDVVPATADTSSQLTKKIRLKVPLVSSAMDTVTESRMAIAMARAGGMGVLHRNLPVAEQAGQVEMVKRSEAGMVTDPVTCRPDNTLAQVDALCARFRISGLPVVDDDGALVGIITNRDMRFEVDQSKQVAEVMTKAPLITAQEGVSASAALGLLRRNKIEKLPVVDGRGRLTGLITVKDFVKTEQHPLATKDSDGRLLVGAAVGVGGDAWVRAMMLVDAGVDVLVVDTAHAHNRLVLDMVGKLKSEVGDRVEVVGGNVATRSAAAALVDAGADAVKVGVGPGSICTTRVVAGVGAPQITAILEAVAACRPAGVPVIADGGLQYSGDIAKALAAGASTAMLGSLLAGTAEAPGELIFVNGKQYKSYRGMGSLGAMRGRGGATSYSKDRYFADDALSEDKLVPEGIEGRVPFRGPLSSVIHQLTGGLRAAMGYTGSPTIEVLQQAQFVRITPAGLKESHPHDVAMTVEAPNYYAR
Chain of Inosine-5'-monophosphate dehydrogenase 2 (Homo sapiens) (P12268 2-514 limits assumed): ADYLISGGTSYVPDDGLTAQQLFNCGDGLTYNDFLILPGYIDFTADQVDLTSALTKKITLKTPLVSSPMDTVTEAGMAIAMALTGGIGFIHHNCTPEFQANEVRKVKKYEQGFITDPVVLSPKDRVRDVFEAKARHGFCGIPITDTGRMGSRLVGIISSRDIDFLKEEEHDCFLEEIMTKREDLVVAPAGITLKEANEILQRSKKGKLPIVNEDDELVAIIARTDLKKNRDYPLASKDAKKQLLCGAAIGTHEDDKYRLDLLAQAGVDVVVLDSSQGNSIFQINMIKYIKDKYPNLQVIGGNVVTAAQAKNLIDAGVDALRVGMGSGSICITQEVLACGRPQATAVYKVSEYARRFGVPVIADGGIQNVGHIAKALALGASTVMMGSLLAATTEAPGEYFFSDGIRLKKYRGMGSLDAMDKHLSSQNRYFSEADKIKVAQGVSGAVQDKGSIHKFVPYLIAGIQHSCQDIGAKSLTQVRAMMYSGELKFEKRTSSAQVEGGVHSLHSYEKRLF

Q: Which IC50 [1] does the source give for `O=C(Cn1cc(C(=O)Nc2cccnc2)c2ccccc21)Nc1ccc(Br)cc1` here?
A: Its IC50 is 2200 nM.

Q: With `C[C@H](Oc1cccc(Cl)c1Cl)C(=O)Nc1ccc2oc(-c3ccncc3)nc2c1` as the molecule, how does the Ki [2] read?
A: The Ki was 22 nM.

Q: With `CC(C(=O)Nc1ccc2c(c1)COC2=O)c1ccc(C(=O)c2ccccc2)cc1` (stereo not drawn) as the molecule, how does the IC50 [3] read?
A: Its IC50 is 6.2 µM.

Q: Which IC50 [3] does the source give for `COc1c(C)c2c(c(O)c1C/C=C(\C)CCC(=O)O)C(=O)OC2` [MYCOPHENOLIC ACID] here?
A: Its IC50 is 27.2 µM.

Q: With `O=C(Nc1ccc(Cl)c(Cl)c1)Nc1ccc(Br)cc1F` as the molecule, how does the inhibition [4] read?
A: The inhibition was greater than 90%.

Q: Which inhibition [4] does the source give for `O=C(Nc1cccc([N+](=O)[O-])c1)Nc1ccc(Cl)c(C(F)(F)F)c1` here?
A: The inhibition was greater than 90%.

Q: Which inhibition [4] does the source give for `Cc1ccc([N+](=O)[O-])cc1NC(=O)Nc1cccc(Cl)c1` here?
A: Its inhibition is greater than 90%.

Q: What does the source list for `O=C(Cc1ccc(F)c2ccccc12)Nc1ccc2c(c1)COC2=O`?
A: IC50 [3]: 3.2 µM; inhibition [5]: < 0.1%

Q: Which Ki [2] does the source give for `C[C@H](Oc1cccc(Cl)c1Cl)C(=O)Nc1ccc2oc(-c3ccc(C(=O)NO)cc3)nc2c1` here?
A: Its Ki is 13 nM.

Q: For `C[C@H](Oc1cccc(Cl)c1Cl)C(=O)Nc1ccc2oc(-c3ccc(C(=O)O)cc3)nc2c1`, which Ki [2] is on record?
A: The Ki was 15.5 nM.

Q: Which IC50 [6] does the source give for `COc1cccc(Cn2cc(COc3ccc(-c4nnc(C)o4)cc3)nn2)c1` here?
A: Its IC50 is 4.06 µM.

Q: With `C[C@H](Oc1cccc2ccccc12)C(=O)Nc1ccc2oc(-c3ccncc3)nc2c1` as the molecule, how does the Ki [2] read?
A: Its Ki is 30 nM.

From ChEMBL document CHEMBL4354787, “Inhibitors of inosine 5'-monophosphate dehydrogenase as emerging new generation antimicrobial agents” (Medchemcomm, 2019)
